The text below walks through data of patent US20110256291A1, “CYCLIC LIPOPEPTIDES FOR USE AS TASTE MODULATORS” (NUTRINOVA NUTRITION SPECIAL TIES & FOOD INGREDIENT GMBH, priority 2008, published 2011).

In this assay the target is T1, human T1R2/T1R3 taste receptor (Homo sapiens, UniProt Q7RTX0+Q8TE23).
T1 construct: the cDNA for the receptors ht1R2 and ht1R3 and the cDNA for the blasticidin S deaminase gene have been cloned; expressed in transfected cells; host or cells: HEK293 cell line stably expressing mouse G-alpha-15, stably transfected with the tricistronic vector pTrix-Eb-R2R3 and selected with blasticidin
T1 sequence (Q8TE23 20-839): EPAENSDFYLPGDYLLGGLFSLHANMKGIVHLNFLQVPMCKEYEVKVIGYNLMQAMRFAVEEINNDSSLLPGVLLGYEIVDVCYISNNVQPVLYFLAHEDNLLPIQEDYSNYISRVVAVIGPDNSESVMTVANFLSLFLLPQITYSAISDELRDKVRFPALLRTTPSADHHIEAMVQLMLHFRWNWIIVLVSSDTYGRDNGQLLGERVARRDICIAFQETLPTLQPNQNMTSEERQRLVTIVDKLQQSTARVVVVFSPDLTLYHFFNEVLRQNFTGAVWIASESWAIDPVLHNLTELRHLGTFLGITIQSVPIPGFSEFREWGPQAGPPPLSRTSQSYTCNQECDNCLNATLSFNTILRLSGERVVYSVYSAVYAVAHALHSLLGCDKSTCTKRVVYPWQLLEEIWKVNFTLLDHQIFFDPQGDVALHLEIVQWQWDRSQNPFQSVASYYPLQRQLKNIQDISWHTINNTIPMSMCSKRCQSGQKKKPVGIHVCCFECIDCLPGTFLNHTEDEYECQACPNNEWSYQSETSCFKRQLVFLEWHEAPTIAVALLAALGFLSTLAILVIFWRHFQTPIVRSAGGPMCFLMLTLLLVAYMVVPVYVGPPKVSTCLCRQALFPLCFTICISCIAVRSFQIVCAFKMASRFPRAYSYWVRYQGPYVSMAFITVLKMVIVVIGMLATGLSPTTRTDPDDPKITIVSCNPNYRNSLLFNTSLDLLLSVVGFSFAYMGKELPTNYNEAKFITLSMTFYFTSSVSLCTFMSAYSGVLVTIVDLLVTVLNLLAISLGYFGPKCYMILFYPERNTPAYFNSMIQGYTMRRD
T1 sequence (Q7RTX0 21-852): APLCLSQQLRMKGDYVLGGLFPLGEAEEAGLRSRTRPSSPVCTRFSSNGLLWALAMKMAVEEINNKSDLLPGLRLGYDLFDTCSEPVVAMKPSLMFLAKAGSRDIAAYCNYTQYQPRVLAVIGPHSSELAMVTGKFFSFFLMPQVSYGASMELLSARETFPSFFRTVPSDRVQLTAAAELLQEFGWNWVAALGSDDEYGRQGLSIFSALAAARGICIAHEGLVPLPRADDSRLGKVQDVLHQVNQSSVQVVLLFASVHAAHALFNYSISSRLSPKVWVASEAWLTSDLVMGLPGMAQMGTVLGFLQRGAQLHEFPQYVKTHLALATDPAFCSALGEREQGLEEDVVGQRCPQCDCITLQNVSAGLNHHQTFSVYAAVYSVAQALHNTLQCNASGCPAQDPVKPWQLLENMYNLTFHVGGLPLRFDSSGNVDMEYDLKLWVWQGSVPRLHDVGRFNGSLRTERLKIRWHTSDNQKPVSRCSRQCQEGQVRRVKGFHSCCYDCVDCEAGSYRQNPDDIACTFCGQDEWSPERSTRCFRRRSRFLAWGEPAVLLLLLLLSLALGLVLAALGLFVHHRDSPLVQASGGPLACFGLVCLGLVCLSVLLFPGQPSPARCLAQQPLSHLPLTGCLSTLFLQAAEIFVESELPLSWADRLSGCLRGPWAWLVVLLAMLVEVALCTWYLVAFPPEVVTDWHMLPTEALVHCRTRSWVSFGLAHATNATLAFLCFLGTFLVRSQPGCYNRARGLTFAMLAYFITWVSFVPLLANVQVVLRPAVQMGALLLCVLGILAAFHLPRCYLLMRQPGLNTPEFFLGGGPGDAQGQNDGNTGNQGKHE
The experiment in a line: calcium dependent cell based assay (Fluo-4 AM) in HEK293 cells stably expressing G-alpha-15, human T1R2 and human T1R3. To be noted: 30 mM fructose (5.4 g/l), pre-examinations. As to the method:
Fluo-4 AM assay with stable HEK293 cells—Stable cells are maintained in DMEM high-glucose medium (Invitrogen) supplemented with 10% fetal bovine serum (Biochrom) and 4 mM L-glutamine (Invitrogen). Cells for calcium imaging are maintained in DMEM low-glucose medium supplemented with 10% FBS and 1× Glutamax-1 (Invitrogen) for 48 hours before seeding. These stable cells are trypsinised after 48 hours (either with Trypsin-EDTA, Accutase or TrypLE) and seeded onto poly-D-lysine coated 96-well assay plates (Corning) at a density of 45,000 cells/well in DMEM low-glucose medium supplemented with 10% FBS and 1× Glutamax-1.
After 24 hours, the cells were loaded in 100 μl medium with additional 100 μl of 4 μM Fluo-4 (calcium sensing dye, 2 μM end concentration; Molecular Probes) in Krebs-HEPES (KH)-buffer for 1 hour. The loading reagent is then replaced by 200 μl KH-buffer per well. […]
The dye-loaded stable cells in plates were placed into a fluorescence microtiter plate reader to monitor fluorescence (excitation 488 nm, emission 520 nm) change after the addition of 50 μl KH-buffer supplemented with 5× tastants. […]
Calcium mobilization was quantified as the change of peak fluorescence (ΔF) over the baseline level (F0). Data were expressed as the mean S.E. of the (ΔF/F0) value of replicated independent samples. The analysis was done with the software of the microtiter plate reader. […]

Consider `O=C(CO)[C@@H](O)[C@H](O)[C@H](O)CO` [fructose], for which the “activation of the sweet taste receptors” value was “barely activating”.
